{"source": "patent US5545648A", "about": "(Canadian Spinal Research Organization, priority 1992, dated 1996)", "key": {"[1]": {"test_system": "spinal cord injured patients", "experiment": "Electrodiagnostic testing (nerve conduction, electromyography, somatosensory evoked potentials)", "format": "in vivo, human", "protocol": "(§1) The schedule of each trial was the same. The patient was admitted to the hospital on the preceding day and in the early morning was assessed by neurological examination and electro-diagnostic evaluation. Administration of the drug or placebo, through an in dwelling venous catheter, was then begun and continued for approximately 2 hours, arranged in 20 minute sequences based on delivery of 1 ml aliquots of the 4-AP solution. The patient was monitored electroencephalographically at frequent intervals throughout the procedure. Samples of blood and urine were obtained from an additional intravenous catheter and from the urinary catheter respectively. Blood was obtained at intervals up to 5 hours from the beginning of drug delivery and urine obtained pre-infusion and at 1 and 2 hours after the beginning of infusion. The patients were re-evaluated by complete neurological examination, by the same examiner, at the end of the period of drug delivery. They were then re-examined with the electrodiagnostic tests. A more limited neurological examination was sometimes performed during drug delivery in an attempt to identify any early changes, without producing significant testing fatigue. The electrodiagnostic tests were repeated at 2 hours after the cessation of drug delivery. Patients showing apparent effects of the treatment remained in the hospital overnight and were examined on the following day. Subsequent contact with the patients was by telephone interview or as a result of their correspondence regarding longer term changes associated with their treatment.\n(§2) Immediately before and after the infusion of 4-AP or placebo, and at approximately 2 hours after the end of the infusion, patients were evaluated with a set of standard electro-diagnostic tests: conduction in peroneal, posterior tibial and sural nerves, electromyography of tibial is anterior and gastroc-nemius muscles during rest and maximal voluntary contraction, and somatosensory evoked potentials. Patients were also monitored with electroencephalography, at intervals during the infusion, to look for evidence of potential for seizure activity."}, "[2]": {"test_system": "synaptic transmission in the spinal cord", "settings": "relatively high concentrations; cited from earlier work"}, "[3]": {"test_system": "spinal cord injured patients", "experiment": "Negative side-effects, EEG and vital sign monitoring", "format": "in vivo, human", "protocol": "as §1, §2"}, "[4]": {"test_system": "spinal cord injured patients", "experiment": "Vibration sensation score", "format": "in vivo, human", "protocol": "as §1\n(§3) Patients were evaluated using a modified form of the American Spinal Injury Association (ASIA) Standards for Neurological Classification of Spinal Injury Patients (revised 1990). The modifications were mainly required to simplify the examination so that it could be performed on patients lying on a bed with intravenous catheters, electrodes and urethral catheters restricting the range of motion. Examinations performed after the day of drug delivery were made on an outpatient basis with the subjects partially clothed, and evaluation of dermatomes was sometimes incomplete. Each part of the examination was videotaped for later review and was repeated on the two sides of the body.\n(§4) Sensory abilities were graded on an analogous 0-4 point scale:\nThe sensory modalities tested were light touch, pinprick, vibration, joint position, and temperature. The dermatomes tested for touch and pinprick were: C5,6,7,8, T1,T7-9,L1,2,3,4,5, and S1, giving a total possible score of 96 for each modality. Vibration sensation was usually tested bilaterally, at the shoulder, elbow, knee and ankle. Temperature sensation was tested, with the subject's eyes closed, by blowing cool air from a distance or breathing warm air in close proximity on the dorsal surface of the hands and feet. Joint position sense was examined with the subject's eyes closed, by imposed flexion and extension movements of the thumb and great toe. The total possible score for the full sensory examination was 256 points.\nThough the examiners assigned half point scores in cases where they felt that subjects fell between score categories, any half point differences between pre- and post-infusion scores have been ignored in this analysis. Also omitted from this tabulation are the scores for vibration sensation, which are shown separately in Table 3. […]"}, "[5]": {"test_system": "animals with experimental or naturally occurring spinal cord injuries", "settings": "intravenous injection; cited from earlier work"}, "[6]": {"test_system": "spinal cord injured patients", "experiment": "Neurological examination, motor and sensory score (modified ASIA standards), double-blind placebo-controlled crossover study", "format": "in vivo, human", "parameters": "key to change in sensory score, -ve / change in sensory score, +ve / change in sensory score, -ve, TOTAL: change in summed sensory points (each item graded 0-4)", "protocol": "The experimental design was a double-blind, placebo-controlled, crossover study in which each patient was administered the drug and a vehicle control on different occasions, separated by two weeks. The order of delivery was randomized.\nas §1\nTwo of the patients who reported more prolonged effects of the drug were returned to the hospital after 4 months for a second, unblinded trial, which included neurological examinations daily for 3-4 days. Plasma samples were also obtained daily from these two patients, for measurement of 4-AP.\nas §3\nGrading of motor abilities was made on the ASIA 0-5 point scale wherever possible:\n0--absent (total paralysis)\n1--trace (palpable or visible contraction producing little or no movement around joint)\n2--poor (active movement through much or all of the normal range of motion, with gravity eliminated--where relevant)\n3--fair (active movement through full range of motion against gravity)\n4--good (active movement against resistance)\nThe muscles examined included: deltoid, biceps, triceps, wrist extensors, wrist flexors, finger flexors and extensors (combined), hip flexors (iliopsoas), hip extensors, quadriceps, hamstrings, ankle dorsiflexors (tibiails anterior) and plantarflexors (gastrocnemius, soleus), and toe extensors (extensor hallucis longus). The total possible score for the full motor examination was 130.\nas §4\n0--absent (no ability to detect the stimulus)\n1--trace (patchy or variable ability to detect stimulus with little or no resolution of quality)\n2--light (able to detect stimulus but much weaker, or of altered quality relative to equivalent unaffected areas) […]"}, "[7]": {"test_system": "spinal cord injury patients", "settings": "cited from earlier work"}, "potassium channels": {"test_system": "potassium channels", "settings": "cited from earlier work"}, "[8]": {"test_system": "surviving myelinated axons of spinal cord", "settings": "single nerve fibers; cited from earlier work"}, "[9]": {"settings": "2 hours after infusion of 4-AP, total of subjects"}, "[10]": {"settings": "2 hours after infusion of 4-AP, total possible 32, one line per subject: b182 RB, SC, HT, LJ, EB, b187 GCh, AW, b189 GCu"}, "[11]": {"settings": "2 hours after infusion of 4-AP, total of 8 subjects"}, "[12]": {"settings": "2 hours after infusion of 4-AP, total of 8 subjects, without vibration"}, "[13]": {"settings": "2 hours after infusion of 4-AP, total possible 130, one line per subject: b160 RB, b161 SC, HT, LJ, EB, GCh, AW, GCu"}, "[14]": {"settings": "2 hours after infusion of 4-AP, total possible 224, without vibration, one line per subject: b160 RB, b161 SC, HT, LJ, EB, GCh, AW, GCu"}}, "note": "“And” between values parts separate entries of the source, which are not always exact repeats. Identical values can stand only once. “Also recorded” adds a separate entry of the source.", "data": [{"smiles": "Nc1ccncc1", "note": "[4-AP, 4-aminopyridine]", "values": [{"measurement": "electromyographic data", "setting": "[1]; after 4-AP", "value": "consistent with observed changes in strength of muscle contraction"}, {"measurement": "peripheral nerve conduction", "setting": "[1]; after 4-AP", "value": "No consistent effects on peripheral nerve conduction"}, {"measurement": "somatosensory evoked potentials (posterior tibial nerve stimulation), no detectable response", "setting": "[1]; six subjects, before or after injection", "value": "no detectable somatosensory evoked potentials"}, {"measurement": "form or amplitude of somatosensory evoked potentials", "setting": "[1]; subjects, following 4-AP", "value": "did not change significantly in form or amplitude"}, {"measurement": "synaptic transmission in the spinal cord", "setting": "[2]", "value": "enhance synaptic transmission in the spinal cord"}, {"measurement": "most frequent side effect: arm discomfort", "setting": "[3]; arm in which the drug was infused", "value": "discomfort in the arm in which the drug was infused"}, {"measurement": "adverse indications on EEG and vital signs", "setting": "[3]; during infusion", "value": "No adverse indications were detected"}, {"measurement": "duration of warm sensation under the skin from neck to back", "setting": "[3]; subject four", "value": "two days"}, {"measurement": "side effects in individual subject", "setting": "[3]; subject named in the block (LJ; EB; GCh; AW)", "value": "pain in the left arm, and some nausea and light-headedness; also recorded: \"warm sensation under the skin from neck to back\" for two days and an episode of constipation; also recorded: no negative side effects; also recorded: After 21 mg of the infusion, their arm became quite painful and they became anxious, then angry, and began to show alternative bouts of sweating and shivering"}, {"measurement": "infusion suspended / not completed", "setting": "[3]; subject two, 25 mg rather than planned 30 mg", "value": "Infusion was suspended in this case because of a combination of discomfort in the arm at the site of infusion, and a significant degree of agitation and anxiety"}, {"measurement": "change in total score for vibration sensation, +ve, TOTAL", "setting": "[4]; [9]", "value": "+1"}, {"measurement": "change in total score for vibration sensation, -ve, TOTAL", "setting": "[4]; [9]", "value": -12}, {"measurement": "change in total score for vibration sensation, +ve", "setting": "[4]; [10]", "value": "0 and +1"}, {"measurement": "change in total score for vibration sensation, -ve", "setting": "[4]; [10]", "value": "0 and -7 and -4 and -2"}, {"measurement": "vibration sensation score (in words)", "setting": "[4]; after 4-AP infusion, three subjects", "value": "scores in three subjects decreased substantially"}, {"measurement": "electrophysiological and behavioral function", "setting": "[5]", "value": "significant improvements in electrophysiological (Blight and Gruner, 1987) and behavioral function"}, {"measurement": "change in motor score, +ve, TOTAL", "setting": "[6]; [11]", "value": "+26"}, {"measurement": "change in motor score, -ve, TOTAL", "setting": "[6]; [11]", "value": 0}, {"measurement": "change in sensory score, +ve, TOTAL", "setting": "[6]; [12]", "value": "+66"}, {"measurement": "change in sensory score, -ve, TOTAL", "setting": "[6]; [12]", "value": -7}, {"measurement": "change in motor score, +ve", "setting": "[6]; [13]", "value": "0 and +4 and +16 and +2"}, {"measurement": "change in motor score, -ve", "setting": "[6]; [13]", "value": 0}, {"measurement": "change in sensory score, +ve", "setting": "[6]; [14]", "value": "0 and +3 and +2 and +14 and +27 and +20"}, {"measurement": "change in sensory score, -ve", "setting": "[6]; [14]", "value": "0 and -5 and -2"}, {"measurement": "initial pinprick response in most distal dermatomes", "setting": "[6]; 2 hours after infusion, second trial", "value": "initial depression of response in the most distal dermatomes"}, {"measurement": "pinprick sensation and joint position sense below the lesion", "setting": "[6]; 24 hours, not seen at 2 hours, subject three", "value": "striking improvement of pinprick sensation and joint position sense below the lesion"}, {"measurement": "persistence of motor score increase", "setting": "[6]; 24 hours, second trial, subject four", "value": "increases in score were sustained at 24 hours after infusion"}, {"measurement": "persistence of pinprick improvement", "setting": "[6]; 48 hours post infusion, second trial, EB and GCh", "value": "still detectable at 48 hour post infusion in both cases"}, {"measurement": "reversal of sensory effect", "setting": "[6]; 72 hours, subject GCh, second trial", "value": "returned completely to pre-infusion status; also recorded: entirely reversed by 72 hours"}, {"measurement": "time of maximal motor improvement", "setting": "[6]; after infusion, second trial, subject four (FIG. 5)", "value": 2, "unit": "h"}, {"measurement": "time of maximal improvement in sensory (pinprick) score", "setting": "[6]; after infusion, second trial, subjects", "value": 24, "unit": "h"}, {"measurement": "motor performance, greater endurance / reversal of leg muscle rigidity effects", "setting": "[6]; second administration, leg muscles, hip and knee", "value": "reduction in the spasticity of leg muscles led at times to a reduction of motor power"}, {"measurement": "pinprick sensation below level of injury", "setting": "[6]; second, unblinded administration, EB and GCh", "value": "remarkable increase in the response to pinprick stimulation below the level of injury"}, {"measurement": "serious side effects", "setting": "[7]; human, in vivo", "value": "lack of serious side effects"}, {"measurement": "therapeutic benefit", "setting": "[7]; mostly electrophysiological level", "value": "modest therapeutic benefit"}, {"measurement": "spontaneous activity of injured nerve fibres on potassium channel blockade", "setting": "potassium channels", "value": "tends to produce or enhance such spontaneous activity and to elicit \"burst\" (multiple action potential) responses"}, {"measurement": "overcoming of conduction block", "setting": "[8]", "value": "Some of this conduction block can be overcome"}]}]}
